Reference: article PMC2099433, “The binding site for neohesperidin dihydrochalcone at the human sweet taste receptor” (BMC Structural Biology, 2007)
Positions count from the first letter of the chain named. Where a SMILES comes first, the peptide text is derived from it.

Key:
[1] = molecular target: T1, hTAS1R2 + hTAS1R3 R723A^5.36 (Homo sapiens, UniProt Q7RTX0+Q8TE23, R723A); assay: Calcium response (FLIPR), hTAS1R3 mutant coexpressed with hTAS1R2; assay type: cell-based; conditions: variant R723A^5.36; for Emax: read-out: maximal signal (% of wt)
T1 construct: expressed in transfected cells; host or cells: HEK293T cells stably expressing G16Gust44
T1 sequence (Q8TE23 20-839): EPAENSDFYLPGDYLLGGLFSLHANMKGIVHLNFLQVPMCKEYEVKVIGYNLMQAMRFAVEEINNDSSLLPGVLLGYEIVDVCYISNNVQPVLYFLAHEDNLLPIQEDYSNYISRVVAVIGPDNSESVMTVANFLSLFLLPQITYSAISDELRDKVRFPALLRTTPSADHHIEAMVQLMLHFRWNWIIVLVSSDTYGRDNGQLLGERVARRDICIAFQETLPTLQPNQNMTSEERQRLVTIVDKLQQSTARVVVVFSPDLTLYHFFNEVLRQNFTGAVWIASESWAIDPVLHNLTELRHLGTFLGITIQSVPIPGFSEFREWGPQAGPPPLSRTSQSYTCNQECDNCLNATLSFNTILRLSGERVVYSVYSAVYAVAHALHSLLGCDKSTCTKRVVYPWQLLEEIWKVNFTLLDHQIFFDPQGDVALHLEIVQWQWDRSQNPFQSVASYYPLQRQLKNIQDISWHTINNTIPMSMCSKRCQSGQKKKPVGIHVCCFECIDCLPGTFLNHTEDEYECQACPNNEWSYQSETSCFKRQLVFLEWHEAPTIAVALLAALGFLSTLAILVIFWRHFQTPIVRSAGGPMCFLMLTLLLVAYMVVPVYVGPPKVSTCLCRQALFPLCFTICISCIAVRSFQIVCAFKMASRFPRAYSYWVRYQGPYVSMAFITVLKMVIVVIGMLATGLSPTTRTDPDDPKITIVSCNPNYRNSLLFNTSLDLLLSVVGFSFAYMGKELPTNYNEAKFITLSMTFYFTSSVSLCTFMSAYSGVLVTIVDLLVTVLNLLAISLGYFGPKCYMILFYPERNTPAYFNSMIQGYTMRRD
T1 sequence (Q7RTX0 21-852 R723A): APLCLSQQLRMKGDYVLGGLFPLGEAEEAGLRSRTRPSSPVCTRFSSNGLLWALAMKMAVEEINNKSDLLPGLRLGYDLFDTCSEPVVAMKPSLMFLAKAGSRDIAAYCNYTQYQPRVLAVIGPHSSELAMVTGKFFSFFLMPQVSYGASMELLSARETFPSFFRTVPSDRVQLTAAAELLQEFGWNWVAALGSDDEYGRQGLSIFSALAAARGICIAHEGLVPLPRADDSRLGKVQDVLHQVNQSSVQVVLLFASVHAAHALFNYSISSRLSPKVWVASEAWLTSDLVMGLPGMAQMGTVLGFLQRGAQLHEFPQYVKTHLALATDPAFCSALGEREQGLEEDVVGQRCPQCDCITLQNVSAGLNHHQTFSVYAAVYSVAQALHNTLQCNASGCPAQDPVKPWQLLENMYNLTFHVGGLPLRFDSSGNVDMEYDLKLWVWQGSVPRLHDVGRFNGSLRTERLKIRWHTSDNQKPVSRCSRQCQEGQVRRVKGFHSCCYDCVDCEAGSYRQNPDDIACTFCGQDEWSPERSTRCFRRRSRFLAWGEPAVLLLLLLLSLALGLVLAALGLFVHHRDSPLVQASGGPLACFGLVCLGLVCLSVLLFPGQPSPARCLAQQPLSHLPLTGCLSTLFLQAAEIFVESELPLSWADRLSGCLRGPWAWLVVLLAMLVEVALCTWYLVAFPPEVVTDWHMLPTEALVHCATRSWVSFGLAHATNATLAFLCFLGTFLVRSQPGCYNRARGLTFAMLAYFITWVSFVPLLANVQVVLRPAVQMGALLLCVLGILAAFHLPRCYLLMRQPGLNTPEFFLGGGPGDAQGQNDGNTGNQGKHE
Summary of the method: (§1)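 Read-out: FLIPR calcium signal as ΔF/F = (F-F0)/F0, corrected for mock-transfected cells. Cells were HEK293T stably carrying G16Gust44, transiently transfected with HSV-tagged receptor cDNAs and dye-loaded with Fluo4-AM 24 h post transfection.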

[2] = molecular target: T2, hTAS1R2 + hTAS1R3 S640A^3.32 (Homo sapiens, UniProt Q7RTX0+Q8TE23, S640A); assay: as above; assay type: cell-based; conditions: variant S640A^3.32; for Emax: read-out: maximal signal (% of wt)
T2 construct: expressed in transfected cells; host or cells: HEK293T cells stably expressing G16Gust44
T2 sequence (Q8TE23 20-839): T1 sequence (Q8TE23 20-839)
T2 sequence (Q7RTX0 21-852 S640A): T1 sequence (Q7RTX0 21-852 R723A) with S620A, A703R
Summary of the method: as §1

COc1ccc(CCC(=O)c2c(O)cc(O[C@@H]3O[C@H](CO)[C@@H](O)[C@H](O)[C@H]3O[C@@H]3O[C@@H](C)[C@H](O)[C@@H](O)[C@H]3O)cc2O)cc1O [NHDC, neohesperidin dihydrochalcone]
EC50 [1]: 200 ± 100 µM
Emax [1]: 69 ± 71%
EC50 [2]: 800 ± 200 µM
Emax [2]: 63 ± 18%

COC(=O)[C@H](Cc1ccccc1)NC(=O)[C@@H](N)CC(=O)O [aspartame] (HELM PEPTIDE1{D.F.[CO[*:1]]}$$$$V2.0)
EC50 [1]: 1500 ± 500 µM
Emax [1]: 68 ± 50%
EC50 [2]: 1400 ± 500 µM
Emax [2]: 61 ± 40%
